Laboratory results from patent US20080003590A1, “Termination of Binding Parameters” (priority 2004, published 2008).

Tests used:
[1] = target: human serum albumin (HSA) (Homo sapiens, UniProt P02768); assay: biochemical
Protocol: 5. Immobilization of Human Serum Albumin (HSA) on Fluorescence-Active Supports (FI-HSA)
For the immobilization of HSA, 100 mg of HSA dissolved in 10 ml of phosphate buffer (20 mM, pH 7.4) are added to 1 g of a support prepared according to 2. and rotated overhead for at least four hours. To remove free protein, this is washed with phosphate buffer, 1M NaCl in phosphate buffer and finally with PBS. The quantification of the protein immobilization is effected by supernatant analysis. The suspension is adjusted to a desired protein concentration in PBS and stored.
For the determination of the albumin binding, 200 mg of the FI-HSA support prepared in 5. were made up to a total volume of 1 ml with PBS, and similarly 200 mg of an FI-Ref prepared according to 3. were made up to 1 ml with PBS.
For the determination of the concentration-dependent quantities, the following volumes were pipetted into the wells of a 384 well UV plate (Greiner UV-plate): […]
whereby the final concentration of carbamazepine in the wells is 70 μM. […] For the determination of the concentration-dependent quantity cpre-binding, excitation spectra of the wells reference 1 and substance 1 are recorded in the “top-read” mode between 250 and 480 nm with an emission wavelength of 530 nm, and calculated from cpre-binding=log F0v(λ)/Fv(λ), where F0v(λ) and Fv(λ) are the excitation spectra of the wells reference 1 and substance 1. […]

[2] = Determination of the membrane affinity of warfarin in the 96-well format (FI-EiPC support, internal filter effect); format: physicochemical; details: triple determination, 70 μM warfarin, FI-EiPC support in PBS
Protocol: 4. Reconstitution of Lipid Membranes on Fluorescence-Active Supports (FI-EiPC)
For the reconstitution of lipid membranes, firstly 1 g of a support prepared according to 2. is treated with a solution of 25 mg of sodium polystyrenesulfonate in 25 ml of water in the overhead rotator and then washed three times each with water and PBS.
60 ml of a vesicle solution of 5 mg/ml EiPC (lipid extract from egg yolk) in PBS (prepared by homogenization in the Avestin Co EmulsiFlex-C5 homogenizer) are added to this support and incubated overnight. To remove excess lipid, this is washed three times with PBS and the support is then stored in PBS. The determination of the lipid concentration is effected by drying of defined volumes of suspension, detachment of the lipid from the solid body using an organic solvent, and then HPLC analysis.
Well reference 1: 100 μl FI-Ref suspension+200 μl PBS
Well substance 1: 100 μl FI-Ref suspension+170 μl PBS+30 μl warfarin solution;
Well reference 1′: 100 μl FI-EiPC suspension+200 μl PBS
Well substance 1′: 100 μl FI-EiPC suspension+170 μl PBS+30 μl warfarin solution; whereby the final concentration of warfarin in the wells is 70 μM. […]

human serum albumin (HSA), sequence (P02768 25-609): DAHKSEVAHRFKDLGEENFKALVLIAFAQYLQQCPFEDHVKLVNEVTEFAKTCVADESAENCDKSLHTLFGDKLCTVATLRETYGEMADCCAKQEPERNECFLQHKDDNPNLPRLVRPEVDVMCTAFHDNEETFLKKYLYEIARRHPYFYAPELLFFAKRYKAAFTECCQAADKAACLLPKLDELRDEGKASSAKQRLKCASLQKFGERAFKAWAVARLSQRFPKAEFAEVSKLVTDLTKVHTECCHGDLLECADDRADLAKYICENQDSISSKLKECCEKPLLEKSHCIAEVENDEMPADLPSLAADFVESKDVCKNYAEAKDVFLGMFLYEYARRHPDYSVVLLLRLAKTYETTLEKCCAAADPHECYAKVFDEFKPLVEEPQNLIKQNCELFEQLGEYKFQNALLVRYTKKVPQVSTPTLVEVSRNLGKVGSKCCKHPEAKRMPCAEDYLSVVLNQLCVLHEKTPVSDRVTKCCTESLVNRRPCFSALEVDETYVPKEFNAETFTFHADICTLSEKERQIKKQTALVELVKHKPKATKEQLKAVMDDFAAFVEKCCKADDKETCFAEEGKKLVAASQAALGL

| Kd [1] | membrane affinity [2] | SMILES |
| --- | --- | --- |
| 170 µM | – | NC(=O)N1c2ccccc2C=Cc2ccccc21 [carbamazepine] |
| – | 1.7±0.3 | CC(=O)CC(c1ccccc1)c1c(O)c2ccccc2oc1=O (centres unmarked) [warfarin] |
